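Growth conditions: 96-well plates. Treatment: test compound, 48 hours, 5 concentrations. Analysis: linear interpolation between bracketing concentrations; unreached endpoints set to highest concentration. Abbreviation: GI50, concentration required for 50% inhibition of growth.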 Active and inactive are the calls of the source. No stated cut-off is given here; in the data, active = GI50 up to about 1.1 µM and inactive = higher. Numbered stars: 1 amine (or outer) side, 2 acyl side, 3 side chain; on linkers, the order of the positions; unused ones are H or OH. Bridge positions count the residues as written; N and C are the ends. Square brackets hold non-standard residues; d marks the D form. Peptide text beside a SMILES is read from it. * marks the point of attachment. ξ: configuration not given here. X33 = O=C(C(CCCCNO[*:3])N[*:1])[*:2]; Fmoc = O=C(OCC1c2ccccc2-c2ccccc21)*; ξW = NC(Cc1c[nH]c2ccccc12)C(=O)O; ξP = O=C(O)C1CCCN1
Columns and labels:
Assay in all cases: NCI anticancer screen, dose series, 48 h
RXF 393 = tested on: RXF 393
RPMI-8226 = tested on: RPMI-8226
SR = tested on: SR
CCRF-CEM = tested on: CCRF-CEM
NCI-H23 = tested on: NCI-H23
SF-295 = tested on: SF-295
SNB-75 = tested on: SNB-75
CAKI-1 = tested on: CAKI-1
OVCAR-4 = tested on: OVCAR-4
MDA-MB-435 = tested on: MDA-MB-435
K562 = tested on: K562
ACHN = tested on: ACHN
NCI-H522 = tested on: NCI-H522
TK-10 = tested on: TK-10
HCT-116 = tested on: HCT-116
IGROV-1 = tested on: IGROV-1
MCF7 = tested on: MCF7
SK-MEL-5 = tested on: SK-MEL-5
UACC-257 = tested on: UACC-257
A498 = tested on: A498

SMILES | GI50 (RXF 393) | GI50 (RPMI-8226) | GI50 (SR) | GI50 (CCRF-CEM) | GI50 (NCI-H23) | GI50 (SF-295) | GI50 (SNB-75) | GI50 (CAKI-1) | GI50 (OVCAR-4) | GI50 (MDA-MB-435) | GI50 (K562) | GI50 (ACHN) | GI50 (NCI-H522) | GI50 (TK-10) | GI50 (HCT-116) | GI50 (IGROV-1) | GI50 (MCF7) | GI50 (SK-MEL-5) | GI50 (UACC-257) | GI50 (A498)
O=C(N/N=C/c1ccc([N+](=O)[O-])cc1)Nc1ccc(Br)cc1 | > 100 µM (inactive) | 28.1 µM (inactive) | 43.2 µM (inactive) | 23.4 µM (inactive) | 47.2 µM (inactive) | > 100 µM (inactive) | > 100 µM (inactive) | 83.6 µM (inactive) | 49 µM (inactive) | 32.6 µM (inactive) | 54 µM (inactive) | 60.7 µM (inactive) | 64.7 µM (inactive) | > 100 µM (inactive) | 45.8 µM (inactive) | 55.5 µM (inactive) | 34 µM (inactive) | 51.6 µM (inactive) | > 100 µM (inactive) | 
CC(=O)OCC1OC(N2C(=O)NC(=O)C3C=C4CCCCC4=CC32)CC1OC(C)=O (configuration not stated) |  | > 100 µM (inactive) | > 100 µM (inactive) |  |  | > 100 µM (inactive) | 56.4 µM (inactive) |  | > 100 µM (inactive) | > 100 µM (inactive) | > 100 µM (inactive) | > 100 µM (inactive) | 70 µM (inactive) | > 100 µM (inactive) | > 100 µM (inactive) | > 100 µM (inactive) | > 100 µM (inactive) |  | > 100 µM (inactive) | > 100 µM (inactive)
CCc1n[nH]c(=O)n1CCCCCCCCn1c(CC)n[nH]c1=O | > 100 µM (inactive) | > 100 µM (inactive) | > 100 µM (inactive) | > 100 µM (inactive) | > 100 µM (inactive) | > 100 µM (inactive) | > 100 µM (inactive) | > 100 µM (inactive) | > 100 µM (inactive) | > 100 µM (inactive) | > 100 µM (inactive) | > 100 µM (inactive) | > 100 µM (inactive) | > 100 µM (inactive) | > 100 µM (inactive) | > 100 µM (inactive) | > 100 µM (inactive) | > 100 µM (inactive) | > 100 µM (inactive) | 
Cc1ccc(C(=O)/C=C2\Nc3ccccc3N=C2NC23CC4CC(CC(C4)C2)C3)cc1 |  | > 10 µM (inactive) | > 10 µM (inactive) | 1 µM (active) | > 10 µM (inactive) | > 10 µM (inactive) | > 10 µM (inactive) | > 10 µM (inactive) | 7.66 µM (inactive) | > 10 µM (inactive) | > 10 µM (inactive) | > 10 µM (inactive) | > 10 µM (inactive) | > 10 µM (inactive) | > 10 µM (inactive) | > 10 µM (inactive) | > 10 µM (inactive) | > 10 µM (inactive) | > 10 µM (inactive) | 
CC(C)NC(=O)OCCN=c1c2ccccc2ccc2ccccc12 | 36.8 µM (inactive) | > 10 µM (inactive) | 24.8 µM (inactive) | 21 µM (inactive) | > 100 µM (inactive) | 38.2 µM (inactive) | 62.5 µM (inactive) | 35.9 µM (inactive) | 33.9 µM (inactive) | 46.6 µM (inactive) | 25 µM (inactive) | 43.1 µM (inactive) |  | 50.7 µM (inactive) | 34.7 µM (inactive) | 47.5 µM (inactive) | 44.9 µM (inactive) | 17.6 µM (inactive) | 42.6 µM (inactive) | 
c1ccc2c(c1)nc1ccccn12 | > 100 µM (inactive) | > 100 µM (inactive) | > 100 µM (inactive) | > 100 µM (inactive) | > 100 µM (inactive) | > 100 µM (inactive) | > 100 µM (inactive) |  |  | > 100 µM (inactive) | > 100 µM (inactive) | > 100 µM (inactive) |  | > 100 µM (inactive) | > 100 µM (inactive) | > 100 µM (inactive) | > 100 µM (inactive) | > 100 µM (inactive) | > 100 µM (inactive) | 1.37 µM (inactive)
O=C1Nc2cccc3cc(NCC(O)CCl)cc1c23 (configuration not stated) | 76.9 µM (inactive) | > 100 µM (inactive) | 11.7 µM (inactive) | 22.2 µM (inactive) | > 100 µM (inactive) | 73.1 µM (inactive) | 25.4 µM (inactive) | 35.2 µM (inactive) | > 100 µM (inactive) | 54.2 µM (inactive) | 91.2 µM (inactive) | 30.3 µM (inactive) | 59.2 µM (inactive) | 75.5 µM (inactive) | 33.7 µM (inactive) | 59 µM (inactive) | 45.7 µM (inactive) | 49.8 µM (inactive) | > 100 µM (inactive) | 
O=C1C(Br)=CC2(C=C1Br)CCNC1=C2C(=O)c2cccnc2C1=O | 4.92 µM (inactive) | 8.93 µM (inactive) | 2.93 µM (inactive) | 6.22 µM (inactive) | 4.07 µM (inactive) | 8.75 µM (inactive) | 10.7 µM (inactive) | 17.4 µM (inactive) | 17.2 µM (inactive) | 1.89 µM (inactive) | 2.44 µM (inactive) | 17 µM (inactive) | 4.65 µM (inactive) | 19.8 µM (inactive) | 13.1 µM (inactive) | 9.18 µM (inactive) | 13.8 µM (inactive) | 3.77 µM (inactive) | 8.36 µM (inactive) | 
C=CCc1[nH]c2c(OCc3ccccc3)cc(N(CC=C)C(C)=O)cc2c1C | 11.2 µM (inactive) | 12.1 µM (inactive) |  | 22.3 µM (inactive) | 13.9 µM (inactive) | 13 µM (inactive) | 10.7 µM (inactive) | 15.5 µM (inactive) | 8.79 µM (inactive) | 17.1 µM (inactive) | 10.1 µM (inactive) | 12.8 µM (inactive) | 13 µM (inactive) | 16.4 µM (inactive) | 12.3 µM (inactive) | 14.4 µM (inactive) | 12.4 µM (inactive) | 11.8 µM (inactive) | 16 µM (inactive) | 12.5 µM (inactive)
CCn1c(=O)c2nc(SC)sc2n(-c2ccccc2)c1=O | > 100 µM (inactive) | > 100 µM (inactive) | > 100 µM (inactive) | > 100 µM (inactive) | > 100 µM (inactive) | > 100 µM (inactive) | > 100 µM (inactive) |  | > 100 µM (inactive) | > 100 µM (inactive) | > 100 µM (inactive) | > 100 µM (inactive) | > 100 µM (inactive) | > 100 µM (inactive) | > 100 µM (inactive) | > 100 µM (inactive) | > 100 µM (inactive) | > 100 µM (inactive) | > 100 µM (inactive) | 
CN(NC(=O)c1ccco1)C1=NCCCCN1 | > 100 µM (inactive) | > 100 µM (inactive) | > 100 µM (inactive) | > 100 µM (inactive) | > 100 µM (inactive) | > 100 µM (inactive) | > 100 µM (inactive) |  | > 100 µM (inactive) | > 100 µM (inactive) | > 100 µM (inactive) | > 100 µM (inactive) | > 100 µM (inactive) | > 100 µM (inactive) | > 100 µM (inactive) | > 100 µM (inactive) | > 100 µM (inactive) | > 100 µM (inactive) | > 100 µM (inactive) | 
O=C1NC2CCCCC2N=C1CC(=O)c1ccc(Br)cc1 (configuration not stated) | 19.5 µM (inactive) | 2.83 µM (inactive) | > 100 µM (inactive) | 5.2 µM (inactive) | > 100 µM (inactive) | 17.9 µM (inactive) |  | > 100 µM (inactive) |  | > 100 µM (inactive) | > 100 µM (inactive) | 49.1 µM (inactive) | 3.05 µM (inactive) | 74.5 µM (inactive) | 66.2 µM (inactive) | 5.22 µM (inactive) | 18 µM (inactive) | > 100 µM (inactive) | > 100 µM (inactive) | > 100 µM (inactive)
C/C=C1/CN2CCC3(O)c4ccccc4N4C=C(C(=O)OC)C1CC2C43O (configuration not stated) |  | > 100 µM (inactive) | > 100 µM (inactive) | > 100 µM (inactive) | > 100 µM (inactive) | > 100 µM (inactive) | > 100 µM (inactive) | > 100 µM (inactive) | > 100 µM (inactive) | > 100 µM (inactive) | 81.5 µM (inactive) | > 100 µM (inactive) | > 100 µM (inactive) | > 100 µM (inactive) | > 100 µM (inactive) | > 100 µM (inactive) | > 100 µM (inactive) | > 100 µM (inactive) | > 100 µM (inactive) | 
NC(=O)CNC(=O)C1CCCN1C(=O)C1CCCCNOC(=O)CC[C@@H](NC(=O)OCC2c3ccccc3-c3ccccc32)C(=O)NC(Cc2c[nH]c3ccccc23)C(=O)N1 (some centres not stated) (Fmoc-[dE][ξW][X33][ξP]G-NH2; ester 1-3) | > 100 µM (inactive) | > 100 µM (inactive) | > 100 µM (inactive) | > 100 µM (inactive) | > 100 µM (inactive) | > 100 µM (inactive) | > 100 µM (inactive) | > 100 µM (inactive) | > 100 µM (inactive) | > 100 µM (inactive) | > 100 µM (inactive) | > 100 µM (inactive) | > 100 µM (inactive) | > 100 µM (inactive) | > 100 µM (inactive) | > 100 µM (inactive) | > 100 µM (inactive) | > 100 µM (inactive) | > 100 µM (inactive) | 
COc1cc(C=O)ccc1O [VANILLIN] |  | > 100 µM (inactive) | > 100 µM (inactive) | > 100 µM (inactive) | > 100 µM (inactive) | > 100 µM (inactive) | > 100 µM (inactive) | > 100 µM (inactive) | > 100 µM (inactive) | > 100 µM (inactive) | > 100 µM (inactive) | > 100 µM (inactive) | > 100 µM (inactive) | > 100 µM (inactive) | > 100 µM (inactive) | > 100 µM (inactive) | > 100 µM (inactive) | > 100 µM (inactive) | > 100 µM (inactive) | 
